Data reported in US20200237731A1, “USE OF CLOXACILLIN TO INHIBIT/PREVENT BIOFILM FORMATION” (priority 2017, published 2020).
“Also recorded” adds a separate entry of the source. Where two headings read alike, the source gives them in different places.

Experiments:
[1] = test system: Staphylococcus aureus strains S14 and S39; test: Implanted subcutaneous catheter infection model in mice; type: in vivo; conditions: 12 h, 24 h and 30 h
[2] = test system: Staphylococcus aureus strains S14 and S39; test: Confocal microscopy of bacterial adhesion to polystyrene well bottom; type: cell-based; conditions: for effect on adhesion / biofilm formation / effect on bacterial adhesion: 4 h; for effect on bacterial adhesion: strain S39
Method: Six-well polystyrene microplates of the same nature and with exactly the same properties as the microplates used in Example 1 (Antibiofilmogram®), i.e. Costar 6-well microplates, product code 3736. The 6-well microplates were used to obtain a sufficient surface area of biofilm formation for confocal microscopy observation. The concentrations corresponding to the MIC and MICb of the strains were tested. At the same time, controls in the absence of antibiotics, strains S14 and S39 were performed. After incubation for 4 h at 37° C. (similar to the conditions used in Example 1 (Antibiofilmogram®), the bottoms of the microplates were cut out and assembled with a glass slide in order to be able to proceed to the observation under confocal microscopy. The observation conditions were as follows: Objective: ×40; Zoom: ×2; Format: 2048×2048 pixels; Laser power; Zmax and Zmin: number of images in the stack; Size between each image: 0.42 μm. “Live/Dead” staining was performed. SYTO9 stains live (and dead) bacteria, while propidium iodide specifically stains dead bacteria. The result was obtained with an analysis of 2880 images (“Slices”).
The percentage of biofilm covering the bottom surface of the well bottom as a percentage of surface cover is shown on the vertical axis. In FIG. 2A, the density of S14 bacteria adhered to the bottom of the wells was shown and analyzed. […] In particular, from 10% to more than 20% of the bottom surface of the well was covered after 4 h of incubation, which is excessive to consider a use in a therapeutic treatment at this dose.

[3] = test system: Staphylococcus aureus strains S14 and S39; test: MIC of cloxacillin (medium not stated); type: cell-based; conditions: for MIC: Staphylococcus aureus
Method: (§1) The determination of each minimum inhibitory concentration (MIC) of cloxacillin was measured conventionally by measuring the growth of each strain in 96-well microplates in the presence of concentrations of antibiotic by absorbance.

[4] = test system: clinical strains of Staphylococcus aureus; test: MIC of cloxacillin by growth (absorbance) in 96-well microplates, Mueller-Hinton medium; type: cell-based; conditions: for MIC: Staphylococcus aureus, read-out: MH MIC
Method: as §1
The MIC was measured in Mueller-Hinton medium (MH; reference medium for antibiotic susceptibility testing) and brain heart infusion (BHI) medium.

[5] = test system: Staphylococcus aureus strain S14; test: Infected skin wound healing model in mice; type: in vivo, C57BL/6 mice
Method: The objective of these trials was to test the efficacy of cloxacillin, at selected doses, in an in vivo model of mouse skin wound infection with strains of Staphylococcus aureus. The in vivo efficacy of specific doses of cloxacillin, derived from the in vitro MIC and MICb doses, was determined by measuring bacterial load (established as a biofilm) at 12 h, Day 5 and Day 11 post-infection, and by measuring wound healing at Day 5 and Day 11 post-infection (as a wound healing score).
In this example, the mice used were 7-week-old female C57BL/6 mice weighing between 20 and 22 g from Janvier Labs, Le Genest St Isle, 53941 St Berthevin, France. The number of mice used was 5 per condition tested.
The concentration of S. aureus was adjusted in PBS to give a concentration of 10^6 CFU in 10 μL (10^8 CFU/mL). The mice, shaved on their backs, were anaesthetized with isoflurane gas and then 4 incisions were made on each side of the spine, defining 2 areas. In each mouse, only one of the areas was infected by subcutaneous injection of 10 μL of S. aureus solution, with the contralateral area serving as the uninfected control.
To test the effect of cloxacillin, 3 groups of mice received, 30 minutes pre-infection, a “preventive” treatment of 5 mg/kg cloxacillin (for mice subsequently receiving cloxacillin at 3 mg/kg) or 30 mg/kg cloxacillin (for mice subsequently receiving cloxacillin at 15 mg/kg) or sterile saline intraperitoneally. These doses were determined in an in-house PK/PD study.
The mice were then treated every two hours after the first preventive treatment for 10 hours with cloxacillin at 3 mg/kg or 15 mg/kg or saline. These doses were pre-determined to simulate blood levels between the planktonic MIC and the biofilm MIC of strain S14.
Three groups of mice were used, a first group being sacrificed at t+12 h after infection to measure the bacterial load. A second group was treated identically and sacrificed 5 days after infection and a third group, treated identically, was sacrificed 11 days after infection. Each day, a healing score is established on the animals, and on the sacrificed animals, a count of the bacteria installed is made (at D5 and D11). The score is established as follows, assigning a value between 0 and 3.
The skin at the wounds is cut, rinsed in PBS to remove non-adhered bacteria and then the tissue is homogenized in Precellys tubes using glass beads. The resulting homogenate was diluted serially, and different dilutions were spread on TSA media plates and cultured overnight at 37° C. Colonies (CFU) were quantified for each dilution and the bacterial load at the wound site was determined.

Cc1onc(-c2ccccc2Cl)c1C(=O)N[C@@H]1C(=O)N2[C@@H]1SC(C)(C)[C@@H]2C(=O)O [cloxacillin]
bacteria attached to the implanted catheter (log CFU/g catheter) vs control ([1]; strain S14, MIC dose (5 mg/kg pre-infection, then 3 mg/kg every 2 h for 10 h, intraperitoneal)): ineffectiveness
bacteria attached to the implanted catheter (log CFU/g catheter) vs control ([1]; strain S14, MICb dose (30 mg/kg pre-infection, then 15 mg/kg every 2 h for 10 h, intraperitoneal)): statistically significant difference from control (***)
bacteria attached to the implanted catheter (log CFU/g catheter) vs control ([1]; strain S39, MIC dose (7 mg/kg pre-infection, then 4 mg/kg every 2 h for 10 h, intraperitoneal)): ineffectiveness
bacteria attached to the implanted catheter (log CFU/g catheter) vs control ([1]; strain S39, MICb dose (45 mg/kg pre-infection, then 25 mg/kg every 2 h for 10 h, intraperitoneal)): statistically significant difference from control (***)
effect on adhesion / biofilm formation ([2]; strain S14, MIC dose (0.25 μg/mL)): allows a decrease in bacterial adhesion but does not inhibit it; also recorded: did not inhibit the adhesion
bottom surface of the well covered by bacteria ([2]; strain S14, MIC dose (0.25 μg/mL), 4 h incubation): 10%
effect on adhesion / biofilm formation ([2]; strain S14, MICb dose (2 μg/mL)): completely inhibit the adhesion
effect on adhesion / biofilm formation ([2]; strain S14, sub-MIC dose (0.125 μg/mL, 0.5 MIC)): no effect on biofilm formation; also recorded: did not inhibit the adhesion
effect on adhesion / biofilm formation ([2]; strain S14, sub-MICb dose (1 μg/mL)): completely inhibit the adhesion
effect on bacterial adhesion ([2]; MIC dose (0.125 μg/mL)): no effect on bacterial adhesion
effect on bacterial adhesion ([2]; MICb dose (6 μg/mL)): completely inhibit the adhesion
effect on bacterial adhesion ([2]; sub-MIC dose (1/2 MIC)): no effect on bacterial adhesion
effect on bacterial adhesion ([2]; sub-MICb dose (3 μg/mL)): completely inhibit the adhesion
MIC ([3]; strain S14, read-out: minimum inhibitory concentration (MIC)): 0.25 µg/mL
MIC ([3]; strain S39, read-out: minimum inhibitory concentration (MIC)): 0.125 µg/mL
minimum inhibitory concentration (MIC) ([3]; strain S14): 0.125 µg/mL
minimum inhibitory concentration (MIC) ([3]; strain S39): 0.25 µg/mL
MIC ([4]; strain S02): 0.125 µg/mL
MIC ([4]; strain S04): 0.25 µg/mL
MIC ([4]; strain S08): 0.25 µg/mL
MIC ([4]; strain S11): 0.5 µg/mL
MIC ([4]; strain S14): 0.25 µg/mL
MIC ([4]; strain S16): 0.25 µg/mL
MIC ([4]; strain S19): 0.5 µg/mL
MIC ([4]; strain S21): 0.25 µg/mL
MIC ([4]; strain S22): 0.5 µg/mL
MIC ([4]; strain S26): 0.25 µg/mL
MIC ([4]; strain S27): 0.25 µg/mL
MIC ([4]; strain S31): 0.25 µg/mL
MIC ([4]; strain S34): 0.5 µg/mL
MIC ([4]; strain S38): 0.5 µg/mL
MIC ([4]; strain S39): 0.5 µg/mL
MIC ([4]; strain S40): 0.5 µg/mL
MIC ([4]; strain S43): 0.25 µg/mL
MIC ([4]; strain S44): 0.25 µg/mL
MIC ([4]; strain S46): 0.25 µg/mL
MIC ([4]; strain S47): 0.25 µg/mL
MIC ([4]; strain S51): 0.25 µg/mL
MIC ([4]; strain S58): 0.25 µg/mL
MIC ([4]; strain S62): 0.25 µg/mL
MIC ([4]; strain S63): 0.25 µg/mL
MIC ([4]; strain S74): 0.25 µg/mL
MIC ([4]; strain S83): 0.125 µg/mL
MH MIC ([4]; strain S02): 0.125 µg/mL
MH MIC ([4]; strain S38): 0.5 µg/mL
MH MIC ([4]; strain S58): 0.25 µg/mL
MH MIC ([4]; strain S83): 0.125 µg/mL
wound-healing score ([5]; infected wounds, strain S14, MIC dose (3 mg/kg)): absence of cloxacillin effect on wound healing
wound-healing score ([5]; infected wounds, strain S14, MICb dose (15 mg/kg), up to day 6): decreases more rapidly
decrease of bacterial load at the wound site vs control ([5]; strain S14, MICb dose (15 mg/kg), 12 h post-infection): ~3 logio
wound-healing score ([5]; uninfected wounds): does not have a per se effect on wound healing
